According to publication PMC8847695 (Frontiers in Chemistry, 2022):

Assays:
Assay type in all cases: binding
Conditions in all cases: 1 = hit, 0 = no hit
[1] = target: AAK1 (121-471) (Homo sapiens, UniProt Q2M2I8); experiment: STD-NMR fragment screening, AAK1
Method in brief: (§1)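 Saturation-transfer difference NMR was run at 25°C and 700 MHz with 20 µM protein, two fragments at 1 mM each, and 10% DMSO-d6. On-resonance saturation was at 0.5–0.6 ppm and off-resonance at 40 ppm, with a 3 s Gaussian-pulse train. A hit required a difference-spectrum peak at least three times the local noise.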

[2] = target: T1, CAMK1G (1-320) (Homo sapiens, UniProt Q96NX5); experiment: STD-NMR fragment screening, CAMK1G
T1 construct: made in house; host or cells: E. coli BL21 (DE3) pLysS
T1 sequence (Q96NX5 1-320): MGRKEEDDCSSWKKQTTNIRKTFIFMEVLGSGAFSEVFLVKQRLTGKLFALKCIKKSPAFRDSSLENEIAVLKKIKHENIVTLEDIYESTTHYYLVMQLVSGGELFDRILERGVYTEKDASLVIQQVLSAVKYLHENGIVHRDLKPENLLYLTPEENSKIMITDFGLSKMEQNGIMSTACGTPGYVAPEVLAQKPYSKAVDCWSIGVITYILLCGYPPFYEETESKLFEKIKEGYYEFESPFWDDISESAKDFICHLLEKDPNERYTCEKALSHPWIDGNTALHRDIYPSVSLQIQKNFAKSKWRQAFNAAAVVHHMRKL
Method in brief: as §1

[3] = target: T2, IDO1 (1-435) (Homo sapiens, UniProt P14902); experiment: STD-NMR fragment screening, IDO1
T2 construct: His-tag of pET15b with TEV site (thrombin site replaced) (cleaved yes); made in house; host or cells: E. coli Rosetta 2 (DE3) pLysS
T2 sequence (P14902 whole entry, the tested form may be a part): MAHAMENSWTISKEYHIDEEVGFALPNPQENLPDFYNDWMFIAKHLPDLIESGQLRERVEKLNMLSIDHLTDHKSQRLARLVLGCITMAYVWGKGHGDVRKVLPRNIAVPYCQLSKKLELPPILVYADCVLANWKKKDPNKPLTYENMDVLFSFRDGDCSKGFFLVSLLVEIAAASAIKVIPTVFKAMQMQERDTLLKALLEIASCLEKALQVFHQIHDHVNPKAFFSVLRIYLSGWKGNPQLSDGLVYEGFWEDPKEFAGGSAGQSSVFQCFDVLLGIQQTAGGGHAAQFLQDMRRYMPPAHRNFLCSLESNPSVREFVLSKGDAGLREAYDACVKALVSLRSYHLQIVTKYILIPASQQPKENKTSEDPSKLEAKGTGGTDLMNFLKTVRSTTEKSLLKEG
Method in brief: as §1

[4] = target: T3, DOT1L (1-416) (Homo sapiens, UniProt Q8TEK3); experiment: STD-NMR fragment screening, DOT1L
T3 construct: made in house; host or cells: E. coli BL21 (DE3) pLysS
T3 sequence (Q8TEK3 1-416): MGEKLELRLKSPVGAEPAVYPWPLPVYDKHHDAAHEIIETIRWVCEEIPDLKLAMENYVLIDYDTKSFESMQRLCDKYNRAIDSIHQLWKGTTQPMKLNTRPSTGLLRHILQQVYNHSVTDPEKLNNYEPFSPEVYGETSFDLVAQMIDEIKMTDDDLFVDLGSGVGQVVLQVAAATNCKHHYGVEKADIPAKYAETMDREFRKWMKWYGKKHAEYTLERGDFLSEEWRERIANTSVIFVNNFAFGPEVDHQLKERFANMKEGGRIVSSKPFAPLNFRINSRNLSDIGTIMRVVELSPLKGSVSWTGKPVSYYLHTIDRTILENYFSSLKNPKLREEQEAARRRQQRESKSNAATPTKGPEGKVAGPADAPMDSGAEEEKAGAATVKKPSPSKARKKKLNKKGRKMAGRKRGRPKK
Method in brief: as §1

Chain of AAK1 (121-471) (Q2M2I8 46-315 limits assumed): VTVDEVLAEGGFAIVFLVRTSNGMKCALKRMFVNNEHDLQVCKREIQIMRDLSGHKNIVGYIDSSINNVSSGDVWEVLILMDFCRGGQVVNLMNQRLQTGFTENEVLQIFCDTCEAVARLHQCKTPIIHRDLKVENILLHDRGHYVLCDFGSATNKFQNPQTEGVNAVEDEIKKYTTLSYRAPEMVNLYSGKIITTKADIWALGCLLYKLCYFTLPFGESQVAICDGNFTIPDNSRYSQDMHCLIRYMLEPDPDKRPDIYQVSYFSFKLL

Row | AAK1 (STD-NMR hit flag) [1] | CAMK1G (STD-NMR hit flag) [2] | IDO1 (STD-NMR hit flag) [3] | DOT1L (STD-NMR hit flag) [4] | Structure (SMILES)
1 | 0 | 0 | 1 | 0 | Nc1ncc(Br)cc1C(=O)O [Fragment B02289612]
2 | 0 | 0 | 0 | 0 | O=C(O)c1ncc(Cl)cc1Cl [Fragment B02297418]
3 | 1 | 0 | 0 | 0 | Cc1ccc(C(N)=O)c(Cl)n1 [Fragment B02291227]
4 | 0 | 0 | 0 | 0 | Cn1nc(C(F)(F)F)c(CO)c1Cl [Fragment B02291214]
5 | 0 | 0 | 0 | 0 | Clc1cscn1 [Fragment B02290477]
6 | 1 | 0 | 1 | 0 | O=C(O)c1cc(Br)c(O)cc1O [Fragment B02297413]
7 | 0 | 0 | 0 | 0 | Brc1cncnc1 [Fragment B02289809]
8 | 0 | 0 | 0 | 0 | Nc1ncc(C(=O)O)cc1Br [Fragment B02297655]
9 | 0 | 0 | 0 | 0 | O=C(O)C(=O)Nc1ccc(Cl)cn1 [Fragment B02290408]
10 | 1 | 0 | 1 | 0 | O=[N+]([O-])c1cnc(Br)[nH]1 [Fragment B02289601]
11 | 0 | 0 | 0 | 0 | NC(=O)c1nc(Cl)n[nH]1 [Fragment B02290118]
12 | 1 | 1 | 1 | 1 | CCC(N)c1ccc(Cl)cc1 (centres unmarked) [Fragment B02291270]
13 | 0 | 0 | 0 | 0 | O=C(O)C(O)c1cccc(Cl)c1 (centres unmarked) [Fragment B02297417]
14 | 1 | 1 | 0 | 0 | Nc1ncc(C(F)(F)F)cc1Cl [Fragment B02291219]
15 | 0 | 0 | 0 | 0 | NCc1cc(Cl)cc(Cl)c1N [Fragment B02290090]
16 | 0 | 0 | 0 | 0 | NCc1cc(Br)no1 [Fragment B02289609]
17 | 0 | 0 | 0 | 0 | CCn1ncc(Br)c1CNC [Fragment B02291155]
18 | 1 | 1 | 1 | 0 | Clc1cnc2ccccn12 [Fragment B02294486]

Row | AAK1 (STD-NMR hit flag) [1] | CAMK1G (STD-NMR hit flag) [2] | IDO1 (STD-NMR hit flag) [3] | DOT1L (STD-NMR hit flag) [4] | Structure (SMILES)
19 | 1 | 1 | 0 | 0 | Brc1cnn2cccnc12 [Fragment B02289610]
20 | 0 | 1 | 0 | 0 | Cc1noc(C)c1Br [Fragment B02289596]
21 | 1 | 0 | 0 | 0 | Brc1cnc(C2OCCO2)s1 [Fragment B02290407]
22 | 0 | 0 | 1 | 0 | O=C(O)c1c(Cl)cncc1Cl [Fragment B02297411]
23 | 0 | 0 | 0 | 0 | COc1ncc(Br)cc1C(=O)O [Fragment B02297396]
24 | 0 | 0 | 0 | 0 | Clc1nsnc1N1CCOCC1 [Fragment B02297414]
25 | 0 | 0 | 0 | 0 | Nc1cccc(Br)c1O [Fragment B02289603]
26 | 0 | 0 | 0 | 0 | Nc1ncc(Br)s1 [Fragment B02290461]
27 | 1 | 1 | 0 | 1 | Cc1c(Cl)cnc(N)c1Cl [Fragment B02297405]
28 | 0 | 0 | 0 | 0 | O=C(O)c1csc(Cl)n1 [Fragment B02291228]
29 | 1 | 1 | 0 | 0 | Nc1cnccc1Br [Fragment B02297424]
30 | 0 | 0 | 0 | 0 | Fc1cc(C2CNCCN2)c(Cl)cc1Cl (centres unmarked) [Fragment B02297397]
31 | 1 | 1 | 0 | 0 | Clc1cncc(-n2cccn2)n1 [Fragment B02291256]
32 | 0 | 1 | 0 | 0 | Cc1ncccc1Br [Fragment B02289619]
33 | 1 | 1 | 0 | 0 | COc1nc(N)ncc1I [Fragment B02289608]
34 | 0 | 1 | 1 | 0 | Cc1nn(CC(=O)O)c(C)c1Cl [Fragment B02291243]
35 | 0 | 0 | 0 | 0 | O=C(O)c1nccc(Cl)c1Cl [Fragment B02290659]

Row | Structure (SMILES) | AAK1 (STD-NMR hit flag) [1] | CAMK1G (STD-NMR hit flag) [2] | IDO1 (STD-NMR hit flag) [3] | DOT1L (STD-NMR hit flag) [4]
36 | O=C(c1ccc(Cl)cc1)N1CCOCC1 [Fragment B02297400] | 0 | 0 | 0 | 0
37 | CN1CCN(c2ccc(Br)cn2)CC1 [Fragment B02297404] | 0 | 0 | 0 | 0
38 | O=c1[nH]cc(Br)c(=O)[nH]1 [Fragment B02291248] | 1 | 1 | 0 | 0
